Laboratory results: patent publication US20070082939A1, “Methods and compositions for the treatment of neuropathies and related disorders” (priority 2005, published 2007)
Entries after “also recorded” stand apart in the source; their conditions may differ. Counter-ions that a name gives are not always drawn.

How the values were obtained:
[1] = test system: acute inflammatory pain produced by injection of yeast extract into the rat paw; conditions: cited from earlier work
[2] = test system: spinal nerve ligation (Chung) model of neuropathic pain; assay: Spinal nerve ligation (Chung) model, tactile stimulation with electronic Von Frey probe; format: in vivo, rats; conditions: for effect on mechanical hyperalgesia compared with morphine / mechanical hyperalgesia: force required to induce paw withdrawal, lesioned paw: lesioned paw; for effect on mechanical hyperalgesia compared with morphine: morphine 128 mg/kg p.o., near lethal dose; for mechanical hyperalgesia: force required to induce paw withdrawal, lesioned paw / pain (pressure) threshold in the non-lesioned paw: rats; for mechanical hyperalgesia: force required to induce paw withdrawal, lesioned paw: p.o. at the indicated doses 60 minutes before the test; for pain (pressure) threshold in the non-lesioned paw: p.o., non-lesioned paw (Panel B)
Protocol: (§1) Tight ligature of spinal nerves in rats is associated with hyperalgesia, allodynia and spontaneous pain, and thereby provides an accepted model for peripheral neuropathic pain in humans. Male Sprague-Dawley rats Rj:SD (IOPS Han) weighing 218-260 g at the beginning of the procedure were anesthetized (sodium pentobarbital 40 mg/kg i.p.) and an incision at the L4-S2 level was performed to expose the left L5 and L6 spinal nerves, which were then tightly ligated (4-0 silk suture) distal to the dorsal root ganglion and prior to entrance into the sciatic nerve, as first described by Kim and Chung (Pain 50:355-363, 1992). The wound was then sutured, and the rats received an […]. injection of clamoxyl (100 mg/kg […].) and were allowed to recover. 4 weeks after surgery, when the chronic pain state was fully installed, rats were submitted consecutively to tactile and thermal stimulation of both the non-lesioned and the lesioned hindpaws.
For tactile stimulation, the animal was placed under an inverted acrylic plastic box (18×11.5×13 cm) on a grid floor. The tip of an electronic Von Frey probe (Bioseb, model 1610) was then applied with increasing force to the non-lesioned and lesioned hindpaws and the force inducing paw-withdrawal was automatically recorded. This procedure was carried out 3 times and the mean force per paw was calculated.
(§2) Behavioral testing was carried out 2 weeks after surgery. Prior to receiving drug treatment all animals were submitted to tactile stimulation and assigned to treatment groups matched on the basis of their pain response. 8 rats were studied per group, and the tests were performed blind.
(§3) Bicifadine was evaluated at the indicated doses, administered p.o. 60 minutes before the test, and compared with a vehicle control group. Morphine (128 mg/kg p.o.), used as a reference substance, was administered under the same experimental conditions.
(§4) Data were analyzed by comparing the responses of lesioned paws in the treatment groups with vehicle control group using paired and unpaired Student's t tests.
(§5) In the instant example, another exemplary, substituted 1-aryl-3-azabicyclo[3.1.0]hexane was evaluated for its ability to alleviate symptoms associated with neuropathy in the spinal nerve ligation (Chung) model of neuropathic pain. In this study, a multiply aryl-subsituted compound as described above, 1-(3,4-dichlorophenyl)-3-azabicyclo[3.1.0]hexane was assayed according to the procedures described above in Example 1. The 1-(3,4-dichlorophenyl)-3-azabicyclo[3.1.0]hexane was administered to test animals at the indicated doses p.o. 60 minutes before the test, and compared with a vehicle control group. Data were analyzed by comparing the responses of lesioned paws in the treatment groups with vehicle control group using paired and unpaired Student's t tests, as described in Example 1.

[3] = test system: spinal nerve ligation (Chung) model of neuropathic pain; assay: Spinal nerve ligation (Chung) model, thermal stimulation (infrared radiant source); format: in vivo, rats; conditions: for effect on thermal hyperalgesia compared with morphine / thermal hyperalgesia: paw withdrawal latency, lesioned paw: lesioned paw; for effect on thermal hyperalgesia compared with morphine: morphine 128 mg/kg PO, nearly lethal dose; for thermal hyperalgesia: paw withdrawal latency, lesioned paw / response to application of heat in the non-lesioned paw: rats; for thermal hyperalgesia: paw withdrawal latency, lesioned paw: p.o. at the indicated doses 60 minutes before the test; for response to application of heat in the non-lesioned paw: p.o., non-lesioned paw (Panel B)
Protocol: as §1
For thermal stimulation, the apparatus (Model 7200, Ugo Basile, Italy) consists of individual acrylic plastic boxes (17×11×13 cm) placed upon an elevated glass floor. A rat was placed in the box and left free to habituate for 10 minutes. A mobile infrared radiant source (96±10 mW/cm^2) was then focused under the non-lesioned and lesioned hindpaws and the paw-withdrawal latency was automatically recorded. In order to prevent tissue damage the heat source was automatically turned off after 45 seconds.
as §2, §3, §4, §5

[4] = test system: Streptozotocin (STZ)-induced diabetes rat model of neuropathy; assay: Streptozotocin (STZ)-induced diabetes rat model, paw pressure test; format: in vivo, rats; conditions: 60 minutes after dosing; for mechanical hyperalgesia: nociceptive threshold (paw pressure): STZ diabetic rats, oral, vs vehicle-treated diabetic rats, hydrochloride
Protocol: Male Sprague Dawley rats Rj:SD (IOPS Han) weighing 218-260 g at the beginning of the experiment, were included in this study for the induction of diabetes. These were divided into vehicle control and streptozotocin treated groups. The rats were housed in a temperature (19.5-24.5° C.) and relative humidity (45-65%) controlled room with a 12-h light/dark cycle, with ad libitum access to filtered tap water and standard pelleted laboratory chow throughout the study.
On day 0, diabetes was induced by intraperitoneal injection of streptozotocin (STZ; 75 mg/kg) to the rats. On day 23, to confirm the presence of diabetes in the STZ-administered rats, hyperglycemia was measured using blood glucose strips. Animals with a blood sugar level lower than […] were not used in further investigations.
Animals found useful for inclusion in additional investigations were dosed orally with bicifadine at the indicated doses, and the nociceptive threshold tested sixty minutes later. The nociceptive threshold was evaluated using a mechanical nociceptive stimulus (paw pressure test). An increasing pressure was applied onto the hindpaw of the animal until the nociceptive response (vocalization or paw withdrawal) was reached. The pain threshold (grams of contact pressure) was measured in both hindpaws.
Results are expressed as the nociceptive threshold (mean±SEM) in grams of contact pressure for each group, calculated from individual nociceptive thresholds (mean values of the nociceptive thresholds obtained for both hindpaws). Statistical significance between the bicifadine treated groups and the vehicle-treated diabetic group was determined by a […], using the residual variance after a one-way analysis of variance (P<0.05).

[5] = test system: nociceptive pain following dental surgery; conditions: humans; cited from earlier work
[6] = morphine 128 mg/kg p.o. (nearly lethal dose), vs vehicle
[7] = listed as Bicfifadine, hydrochloride
[8] = vs vehicle, listed as bicifadine HCl, hydrochloride

COc1ccc2c3c1O[C@H]1[C@@H](O)C=C[C@H]4[C@@H](C2)N(C)CC[C@@]341 [codeine]
activity in the Randall-Selitto test [1]: active

CN1CC[C@]23c4c5ccc(O)c4O[C@H]2[C@@H](O)C=C[C@H]3[C@H]1C5 [morphine, reference compound]
threshold for nociceptive response, mechanical pressure, lesioned paw [2, 6]: significant increase | threshold for nociceptive response, thermal stimulus, lesioned paw [3, 6]: significant increase | activity in the Randall-Selitto test [1]: active

Cc1ccc([C@]23CNC[C@H]2C3)cc1 (racemic) [bicifadine, (±)-1-(4-methylphenyl)-3-azabicyclo[3.1.0]hexane hydrochloride]
force required to induce paw withdrawal, lesioned paw ([2]; 50 mg/kg PO, 60 minutes before the test, vs vehicle treated lesioned paws): significant increase | effect on mechanical hyperalgesia compared with morphine ([2]; hydrochloride): more potent than morphine | effect on mechanical hyperalgesia compared with morphine [2, 7]: as effective as a near lethal dose morphine | mechanical hyperalgesia: force required to induce paw withdrawal, lesioned paw ([2]; vs vehicle, hydrochloride): statistically significant increase; also recorded: effectively suppressed | mechanical hyperalgesia: force required to induce paw withdrawal, lesioned paw [2, 8]: suppresses mechanical hyperalgesia | pain (pressure) threshold in the non-lesioned paw ([2]; hydrochloride): does not affect; also recorded: no effect | paw withdrawal latency in response to a thermal stimulus, lesioned paw ([3]; all doses tested (12.5-100 mg/kg PO), vs vehicle): significant increase | effect on thermal hyperalgesia compared with morphine ([3]; hydrochloride): approximately equivalent | effect on thermal hyperalgesia compared with morphine [3, 7]: as effective as a near lethal dose morphine | thermal hyperalgesia: paw withdrawal latency, lesioned paw ([3]; vs vehicle, hydrochloride): effectively suppressed | thermal hyperalgesia: paw withdrawal latency, lesioned paw [3, 8]: suppresses thermal hyperalgesia | response to application of heat in the non-lesioned paw ([3]; hydrochloride): does not affect; also recorded: no effect | nociceptive threshold (paw pressure) ([4]; 12.5 and 25 mg/kg oral, vs vehicle treated diabetic animals): significant (P<0.05) increase | mechanical hyperalgesia: nociceptive threshold (paw pressure) [4]: reduces mechanical hyperalgesia; also recorded: effectively alleviates neuropathy symptoms (mechanical hyperalgesia) | mechanical hyperalgesia: nociceptive threshold (paw pressure) ([4]; listed as Bicifadine): increased the amount of pressure an animal could withstand; also recorded: restore the amount of pressure tolerated in these diabetic rats to values approaching those obtained in control animals | activity in the Randall-Selitto test [1]: potent and active | relief of pain following dental surgery compared with codeine and tramadol [5]: as effective as codeine and tramadol

Clc1ccc(C23CNCC2C3)cc1Cl (centres unmarked) [1-(3,4-dichlorophenyl)-3-azabicyclo[3.1.0]hexane]
mechanical hyperalgesia: force required to induce paw withdrawal, lesioned paw ([2]; vs vehicle): potently suppressed tactile allodynia; also recorded: significant increase in the force required to induce paw withdrawal; also recorded: suppresses mechanical hyperalgesia | pain (pressure) threshold in the non-lesioned paw [2]: not due to debilitation of the animal; also recorded: no effect | thermal hyperalgesia: paw withdrawal latency, lesioned paw ([3]; vs vehicle): dose-dependently suppressed thermal hyperalgesia; also recorded: significant increase in paw withdrawal latency; also recorded: suppresses thermal hyperalgesia | response to application of heat in the non-lesioned paw [3]: not due to debilitation of the animal; also recorded: no effect

CC(=O)Oc1ccccc1C(=O)O [aspirin]
activity in the Randall-Selitto test [1]: active
